Laboratory results taken from patent US11564904B2, “Gingko diterpene lactone composition” (Jiangsu Kanion Pharmaceutical Co., Ltd., priority 2017, dated 2023).

Legend:
[1] = tested on: PAF-induced platelet aggregation; experiment: In vitro PAF-induced platelet aggregation rate of rabbits; format: cell-based, New Zealand white rabbits; conditions: compositions 9.26 μg/ml, nimodipine 0.05 μg/ml
Protocol: (§1) Rabbits were treated with procaine by local anesthesia, carotid arterial cannulation and bleeding. […] Incubation was performed for 5 min, then 10 μl of 146 μg/ml ADP and 10 μl of 10 μg/ml PAF were added in turn. […] Aggregation inhibition rate (%)=(maximum aggregation rate of blank control group−maximum aggregation rate of administration group)/maximum aggregation rate of blank control group×100%. The experimental data was expressed as x±s and analyzed by SPSS 17.0 statistical software. The comparison of means between multiple groups was performed by one-way analysis of variance. The comparison of sample means between two groups was performed by q test. P<0.05 was considered statistically significant.

[2] = tested on: ADP-induced platelet aggregation; experiment: In vitro ADP-induced platelet aggregation rate of rabbits; format: cell-based, New Zealand white rabbits; conditions: compositions 9.26 μg/ml, nimodipine 0.05 μg/ml
Protocol: as §1

[3] = tested on: right middle cerebral artery occlusion (MCAO) model; experiment: Focal cerebral ischemia-reperfusion injury (MCAO) model in rats; format: in vivo, SD rats; conditions: nimodipine 10.8 mg/kg, x ± s, n = 10
[4] = PAF 0.37 μg/ml, rabbit PRP, x ± s, n = 10
[5] = ADP 5.4 μg/ml, rabbit PRP, x ± s, n = 10
[6] = serum 24 hours after reperfusion, compositions 2.4 g·kg^−1 i.v.

Structure (SMILES): COCCOC(=O)C1=C(C)NC(C)=C(C(=O)OC(C)C)C1c1cccc([N+](=O)[O-])c1 (stereo not shown) [Nimodipine]
- inhibition at 0.05 µg/mL ([1]; Oryctolagus cuniculus, Platelet, PAF-induced, from maximum aggregation rate vs blank control): 27%
- Platelet aggregation rate 1 min [1, 4]: 27.13 ± 2.06
- Platelet aggregation rate 5 min [1, 4]: 42.18 ± 9.73
- Platelet aggregation rate Max [1, 4]: 48.08 ± 5.82
- Platelet aggregation rate 1 min [2, 5]: 26.46 ± 4.41
- Platelet aggregation rate 5 min [2, 5]: 38.33 ± 5.80
- Platelet aggregation rate Max [2, 5]: 41.85 ± 4.87
- inhibition at 0.05 µg/mL ([2]; Oryctolagus cuniculus, Platelet, ADP-induced, from maximum aggregation rate vs blank control): 16%
- Infarct size % ([3]; TTC staining 24 hours after re-perfusion, compositions 2.4 g·kg^−1 i.v.): 15.49 ± 5.94%
- BWC % ([3]; brain water content 24 hours after re-perfusion, compositions 2.4 g·kg^−1 i.v.): 68.36 ± 8.97%
- Neurologic score ([3]; rat MCAO, 3 h ischemia, after reperfusion, compositions 2.4 g·kg^−1 tail vein injection): 2.70 ± 0.95
- MDA/nmol* mg^−1 [3, 6]: 5.79 ± 1.75 nmol/mg
- SOD/U*mg^−1 [3, 6]: 26.94 ± 4.37 U*mg^−1
